The text below walks through data of US20150374784A1, “COMPOSITIONS AND METHODS FOR REDUCING GERM CELL DEATH” (Los Angeles Biomedical Research Institute at Harbor-UCLA …, priority 2014, published 2015).

Peptide text beside a SMILES is read from it.

Data set [1] deals with B16 melanoma cells. The data set is classed as cell-based. An excerpt:
Furthermore, the autophagy induction of humanin may be related to its apparent effects of enhancing longevity observed in other systems.

A short description of data set [2]: in vivo. To be noted: male, C57BL/6J, mouse, sc, 10 mg/kg BW. The method, then: The objective of this study was to investigate whether HNG has protective effect on sperm output after multiple doses of CP in mice. Thirty adult male mice (C57BL/6J) were randomized into 4 groups: 1) 5 as control; 2) 5 received daily subcutaneously injection of HNG (10 mg/kg BW); 3) 10 were given 6 doses of CP (150 mg/kg BW) intraperitoneally at 5-day intervals; 4) 10 received both HNG and CP. All mice were killed at 28 days. Plasma HNG and IGF-1 levels were measured by ELISAs. The cauda epididymal sperm count was performed using a hemocytometer.

In data set [3] the test system is Leydig cells. The data set can be described thus: Testosterone of cultured Leydig cells treated with ketoconazole. The following applies: KTZ 10 mcg/ml, 4 hours, 34° C. It is filed as cell-based, rat. The method, then: Leydig cells were isolated based on a previously described procedure (Gao, et al., 1996; Klinefelter, et al., 1987; Salva, et al., 2001). Briefly, the testes were decapsulated, and then dissociated with collagenase, dispase, DNase and shaking for 15 min at 34° C. The seminiferous tubules were removed by filtration through 40 μm nylon mesh (BD Falcon, Franklin Lakes, N.J.). Leydig cells were then harvested after centrifugation and purified using a Percoll gradient (GE Healthcare, Uppsala, Sweden) and centrifugation (60 minutes at 20,000 g at 4° C.). Enriched Leydig cells were harvested at densities between 1.065 (red) and 1.075 (blue) g/cm^3 from the percoll gradient. These Leydig cells were washed by diluting the percoll and excluding residual germ cells and other cells using a BSA density gradient with centrifugation. The purity of the Leydig cells was >90%, as determined by histochemical staining for 3β-hydroxysteroid dehydrogenase. The cell viability, as assessed by trypan blue exclusion, was greater than 90%. […]
Testosterone concentrations in plasma, testes, and culture medium were measured by a previously described radioimmunoassay (Lue, et al., 2010) with a minimal detection limit of 0.1 ng/ml. […]

Data set [4] deals with male germ cells. The data set can be described thus: TMZ-induced male germ cell apoptosis in SCID mice (TUNEL, Apoptosis Index). It is filed as in vivo, mouse. The following applies: 24 hours after last injection; TMZ 50 mg/Kg BW/day X 5 days; HNG 5 mg/Kg BW/day. The method, then:
Onco-infertility is a major concern of cancer survivors. In this study, it was investigated whether HNG will prevent chemotherapy (Temozolomide, TMZ, an alkylating agent used clinically to treat brain tumors) induced male germ cell apoptosis in SCID mice bearing subcutaneous implants of human medulloblastoma. DAOY human pediatric medulloblastoma cells ([…] cells/animal) were injected subcutaneously into the right flank of 7-week old male SCID mice. After 3 weeks to allow tumor growth, each group of mice (n=4 to 5/group) received one of the following treatments: 1) vehicle (control); 2) HNG intra-peritoneal (IP) injection (HNG, 5 mg/Kg BW/day, 3 days pretreatment+5 days treatment); 3) TMZ IP injection (TMZ, 50 mg/Kg BW/day X 5 days); 4) TMZ and HNG IP injections (TMZ+HNG). Mice were sacrificed 24 hours after the last injection, subcutaneous tumors were dissected and weighed (FIG. 26) and male germ cell apoptosis was assessed by TUNEL staining and quantified (Apoptosis Index, AI, number of apoptotic germ cell/Sertoli cell, FIG. 27). […] HNG ameliorated TMZ-induced germ cell apoptosis without affecting the chemotherapeutic effect on transplanted medulloblastoma tumor in an immunocompromised mouse model.

For `CC[C@H](C)[C@H](NC(=O)[C@H](CCC(=O)O)NC(=O)CNC(=O)[C@@H](NC(=O)[C@H](CC(C)C)NC(=O)[C@H](CC(C)C)NC(=O)[C@H](CC(C)C)NC(=O)[C@H](CC(C)C)NC(=O)[C@H](CS)NC(=O)[C@H](CO)NC(=O)[C@H](Cc1ccccc1)NC(=O)CNC(=O)[C@H](CCCNC(=N)N)NC(=O)[C@@H]1CCCN1C(=O)[C@H](C)NC(=O)[C@@H](N)CCSC)[C@@H](C)O)C(=O)N[C@@H](CC(=O)O)C(=O)N[C@@H](CC(C)C)C(=O)N1CCC[C@H]1C(=O)N[C@H](C(=O)N[C@@H](CCCCN)C(=O)N[C@@H](CCCNC(=N)N)C(=O)N[C@@H](CCCNC(=N)N)C(=O)N[C@@H](C)C(=O)O)C(C)C` [HNG] (H-MAPRGFSCLLLLTGEIDLPVKRRA-OH; N-terminus and C-terminus assumed), the “cytotoxicity of combined treatment versus doxorubicin treatment alone” value in data set [1] was “additive effect on the cytotoxicity”. This molecule also displayed a level at 672 h in data set [2] of 80.8 ± 7.8 ng/mL.

As for `CC(=O)N1CCN(c2ccc(OCC3COC(Cn4ccnc4)(c4ccc(Cl)cc4Cl)O3)cc2)CC1` (centres unmarked) [KTZ, ketoconazole, reference compound], the “testosterone levels of cultured Leydig cells” value in data set [3] is listed as “lowered the testosterone levels significantly”.

With `Cn1nnc2c(C(N)=O)ncn2c1=O` [TMZ, Temozolomide], in data set [4], the “Apoptosis Index (AI), apoptotic germ cell/Sertoli cell, early+late stages” value came out at 0.116±0.009 and the “Apoptosis Index (AI), apoptotic germ cell/Sertoli cell, middle stages” value amounted to 0.058±0.006.
